Test system: monkey corneal endothelial cells
Test: Adhesion of cultured monkey corneal endothelial cells with fasudil, CellTiter-Glo Luminescent Cell Viability Assay
Assay type: cell-based, Macaca fascicularis
Details: fasudil 10 μM, passage-cultured cells
Description: From the corneal tissue isolated from Macaca fascicularis euthanized, Descemet's membrane with corneal endothelial cells attached thereto was separated. The Descemet's membrane was incubated together with Dispase II (1.2 U/ml, Roche Applied Science) under the conditions of 37° C., 5% CO2 for 45 min, and the corneal endothelial cells were mechanically separated by a pipetting operation. The separated corneal endothelial cells were centrifuged and passage-cultured in a medium for corneal endothelium. As the medium for corneal endothelium, the same cell culture medium as in Example 1 was used. The cultured monkey corneal endothelial cells collected during the passage culture by a 0.05% trypsin treatment were separated and centrifuged, and stirred to the same concentration in a medium for corneal endothelium added with fasudil (10 μM, SIGMA-ALDRICH) in the fasudil group and in a medium for corneal endothelium without addition of fasudil in the control group, and the cells were seeded on a 96 well plate at a density of about 2000 cells per well. At 24 hr from the start of the culture, the adhered cells were counted using CellTiter-Glo (registered trade mark) Luminescent Cell Viability Assay (Promega) (FIG. 17).

## O=S(=O)(c1cccc2cnccc12)N1CCCNCC1 [fasudil, 1-(5-isoquinolinesulfonyl)homopiperazine]
  cell adhesion of corneal endothelial cells at 24 hr, compared to control group: effect of promoted cell adhesion of the corneal endothelial cells was also found

Source: patent US20230210864A1, “AGENT FOR PROMOTING CORNEAL ENDOTHELIAL CELL ADHESION” (Senju Pharmaceutical Co., Ltd., priority 2007, published 2023)
